Reference: ChEMBL document CHEMBL1141978, “Synthesis and antibacterial activities of 5-hydroxy-4-amino-2(5H)-furanones” (2005)
Converted amounts (≈) assume the structure as drawn.

Experiments:
Escherichia coli [1] = assay: Zone of inhibition of Escherichia coli after treatment with the 30 ug of the compound; type: functional
Staphylococcus aureus [2] = assay: Zone of inhibition of Staphylococcus aureus after treatment with the 30 ug of the compound; type: functional
Pseudomonas aeruginosa [3] = assay: Zone of inhibition of Pseudomonas aeruginosa after treatment with the 30 ug of the compound; type: functional
[4] = Minimum inhibitory concentration in Enterobacter En1 strain was determined; type: functional
Pseudomonas aeruginosa [5] = assay: Minimum inhibitory concentration in Pseudomonas aeruginosa P7 strain was determined; type: functional
Staphylococcus aureus [6] = assay: Zone of inhibition of Staphylococcus aureus after treatment with compound; type: functional
Staphylococcus aureus [7] = assay: Minimum inhibitory concentration in Staphylococcus aureus S1 strain was determined; type: functional
Staphylococcus aureus [8] = assay: Minimum […] concentration in Staphylococcus aureus S2 strain was determined; type: functional
Escherichia coli [9] = assay: Zone of inhibition of Escherichia coli after treatment with the compound; type: functional
Staphylococcus aureus [10] = assay: Minimum inhibitory concentration in Staphylococcus aureus ATCC 25923 strian was determined; type: functional
Pseudomonas aeruginosa [11] = assay: Minimum […] concentration in Pseudomonas aeruginosa P7 strain was determined; type: functional
Klebsiella pneumoniae [12] = assay: Minimum […] concentration in Klebsiella pneumoniae K2 strain was determined; type: functional
Acinetobacter sp. [13] = assay: Minimum inhibitory concentration in Acinetobacter species A1 strain was determined; type: functional
Escherichia coli [14] = assay: Minimum inhibitory concentration in Escherichia coli E1 strain was determined; type: functional
[15] = Minimum inhibitory concentration in Enterobacter En3 strain was determined; type: functional
Escherichia coli [16] = assay: Minimum […] concentration in Escherichia coli E1 strain was determined; type: functional
Pseudomonas aeruginosa [17] = assay: Minimum inhibitory concentration in Pseudomonas aeruginosa P12 strain was determined; type: functional
Acinetobacter sp. [18] = assay: Minimum […] concentration in Acinetobacter species A2 strain was determined; type: functional
Acinetobacter sp. [19] = assay: Minimum inhibitory concentration in Acinetobacter species A2 strain was determined; type: functional
Pseudomonas aeruginosa [20] = assay: Minimum […] concentration in Pseudomonas aeruginosa ATCC 27853 was determined; type: functional
Escherichia coli [21] = assay: Minimum inhibitory concentration in Escherichia coli E3 strain was determined; type: functional
Klebsiella pneumoniae [22] = assay: Minimum inhibitory concentration in Klebsiella pneumoniae K2 strain was determined; type: functional
Klebsiella pneumoniae [23] = assay: Minimum inhibitory concentration in Klebsiella pneumoniae K1 strain was determined; type: functional
Pseudomonas aeruginosa [24] = assay: Zone of inhibition of Pseudomonas aeruginosa after treatment with the compound; type: functional
Pseudomonas aeruginosa [25] = assay: Minimum inhibitory concentration in Pseudomonas aeruginosa ATCC 27853 strain was determined; type: functional
Klebsiella pneumoniae [26] = assay: Minimum […] concentration in Klebsiella pneumoniae K1 strain was determined; type: functional
[27] = Minimum […] concentration in Enterobacter En1 strain was determined; type: functional
Staphylococcus aureus [28] = assay: Minimum […] concentration in Staphylococcus aureus S1 strain was determined; type: functional
Escherichia coli [29] = assay: Minimum inhibitory concentration in Escherichia coli ATCC 25922 strain was determined; type: functional
Acinetobacter sp. [30] = assay: Minimum […] concentration in Acinetobacter species A1 strain was determined; type: functional
Escherichia coli [31] = assay: Minimum […] concentration Escherichia coli ATCC 25922 strain was determined; type: functional
Staphylococcus aureus [32] = assay: Minimum inhibitory concentration in Staphylococcus aureus S2 strain was determined; type: functional
Escherichia coli [33] = assay: Minimum […] concentration in Escherichia coli E3 strain was determined; type: functional
[34] = Minimum […] concentration in Enterobacter En3 strain was determined; type: functional
Pseudomonas aeruginosa [35] = assay: Minimum […] concentration in Pseudomonas aeruginosa P12 strain was determined; type: functional
Staphylococcus aureus [36] = assay: Minimum […] concentration in Staphylococcus aureus ATCC 25923 strain was determined; type: functional
Staphylococcus aureus [37] = assay: Zone of inhibition of Staphylococcus aureus after treatment with the compound; type: functional
Escherichia coli [38] = assay: Zone of inhibition of Escherichia coli after treatment with 10 ug of the compound; type: functional, organism-based
Staphylococcus aureus [39] = assay: Zone of inhibition of Staphylococcus aureus after treatment with 10 ug of the compound; type: functional, organism-based
Pseudomonas aeruginosa [40] = assay: Zone of inhibition of Pseudomonas aeruginosa after treatment with 10 ug of the compound; type: functional, organism-based

Row | Molecule | MIC [4] [µg/mL] | MIC (Pseudomonas aeruginosa [5]) [µg/mL] | Inhibition (Staphylococcus aureus [6]) [mm] | MIC (Staphylococcus aureus [7]) [µg/mL] | MBC (Staphylococcus aureus [8]) [µg/mL] | Inhibition (Escherichia coli [9]) [mm] | MIC (Staphylococcus aureus [10]) [µg/mL] | MBC (Pseudomonas aeruginosa [11]) [µg/mL] | MBC (Klebsiella pneumoniae [12]) [µg/mL] | MIC (Acinetobacter sp. [13]) [µg/mL] | MIC (Escherichia coli [14]) [µg/mL] | MIC [15] [µg/mL] | MBC (Escherichia coli [16]) [µg/mL] | MIC (Pseudomonas aeruginosa [17]) [µg/mL] | MBC (Acinetobacter sp. [18]) [µg/mL] | MIC (Acinetobacter sp. [19]) [µg/mL] | MBC (Pseudomonas aeruginosa [20]) [µg/mL] | MIC (Escherichia coli [21]) [µg/mL] | MIC (Klebsiella pneumoniae [22]) [µg/mL] | Inhibition (Pseudomonas aeruginosa [24]) [mm] | other results
1 | O=C(N[C@H](CO)[C@H](O)c1ccc([N+](=O)[O-])cc1)C(Cl)Cl [CHLORAMPHENICOL] | – | – | – | – | – | – | – | – | – | – | – | – | – | – | – | – | – | – | – | – | Inhibition (Escherichia coli [1]): 15 mm; Inhibition (Staphylococcus aureus [2]): 0 mm; Inhibition (Pseudomonas aeruginosa [3]): 0 mm
2 | C/N=C1\C(Cl)=C(O)OC1O (stereo unspecified) | 32 (≈ 196 µM) | 32 (≈ 196 µM) | 10 | 16 (≈ 97.8 µM) | 8 (≈ 48.9 µM) | 11 | 8 (≈ 48.9 µM) | 64 (≈ 391 µM) | 64 (≈ 391 µM) | 8 (≈ 48.9 µM) | 32 (≈ 196 µM) | 32 (≈ 196 µM) | 32 (≈ 196 µM) | 32 (≈ 196 µM) | 64 (≈ 391 µM) | 64 (≈ 391 µM) | 32 (≈ 196 µM) | 64 (≈ 391 µM) | 32 (≈ 196 µM) | 8 | MIC (Klebsiella pneumoniae [23]): 16 µg/mL (≈ 97.8 µM); MIC (Pseudomonas aeruginosa [25]): 16 µg/mL (≈ 97.8 µM); MBC (Klebsiella pneumoniae [26]): 32 µg/mL (≈ 196 µM); MBC [27]: 64 µg/mL (≈ 391 µM); MBC (Staphylococcus aureus [28]): 32 µg/mL (≈ 196 µM); MIC (Escherichia coli [29]): 16 µg/mL (≈ 97.8 µM); MBC (Acinetobacter sp. [30]): 16 µg/mL (≈ 97.8 µM); MBC (Escherichia coli [31]): 32 µg/mL (≈ 196 µM); MIC (Staphylococcus aureus [32]): 4 µg/mL (≈ 24.5 µM); MBC (Escherichia coli [33]): 64 µg/mL (≈ 391 µM); MBC [34]: 32 µg/mL (≈ 196 µM); MBC (Pseudomonas aeruginosa [35]): 64 µg/mL (≈ 391 µM); MBC (Staphylococcus aureus [36]): 16 µg/mL (≈ 97.8 µM)
3 | OC1=C(Cl)/C(=N\Cc2ccccc2)C(O)O1 (stereo unspecified) | 8 (≈ 33.4 µM) | 32 (≈ 134 µM) | 16 | 16 (≈ 66.8 µM) | 32 (≈ 134 µM) | 6 | 4 (≈ 16.7 µM) | 32 (≈ 134 µM) | 32 (≈ 134 µM) | 4 (≈ 16.7 µM) | 16 (≈ 66.8 µM) | 16 (≈ 66.8 µM) | 16 (≈ 66.8 µM) | 16 (≈ 66.8 µM) | 16 (≈ 66.8 µM) | 8 (≈ 33.4 µM) | 64 (≈ 267 µM) | 16 (≈ 66.8 µM) | 16 (≈ 66.8 µM) | 6 | MIC (Klebsiella pneumoniae [23]): 32 µg/mL (≈ 134 µM); MIC (Pseudomonas aeruginosa [25]): 32 µg/mL (≈ 134 µM); MBC (Klebsiella pneumoniae [26]): 32 µg/mL (≈ 134 µM); MBC [27]: 16 µg/mL (≈ 66.8 µM); MBC (Staphylococcus aureus [28]): 32 µg/mL (≈ 134 µM); MIC (Escherichia coli [29]): 8 µg/mL (≈ 33.4 µM); MBC (Acinetobacter sp. [30]): 8 µg/mL (≈ 33.4 µM); MBC (Escherichia coli [31]): 16 µg/mL (≈ 66.8 µM); MIC (Staphylococcus aureus [32]): 32 µg/mL (≈ 134 µM); MBC (Escherichia coli [33]): 32 µg/mL (≈ 134 µM); MBC [34]: 32 µg/mL (≈ 134 µM); MBC (Pseudomonas aeruginosa [35]): 32 µg/mL (≈ 134 µM); MBC (Staphylococcus aureus [36]): 8 µg/mL (≈ 33.4 µM)
4 | C[S+](C)[O-] [DIMETHYL SULFOXIDE] | – | – | – | – | – | 0 | – | – | – | – | – | – | – | – | – | – | – | – | – | 0 | Inhibition (Staphylococcus aureus [37]): 0 mm
5 | C/N=C1\C(Br)=C(O)OC1O (stereo unspecified) | – | – | 16 | – | – | 9 | – | – | – | – | – | – | – | – | – | – | – | – | – | 7 | –
6 | GENTAMICIN | – | – | – | – | – | – | – | – | – | – | – | – | – | – | – | – | – | – | – | – | Inhibition (Escherichia coli [38]): 25 mm; Inhibition (Staphylococcus aureus [39]): 31 mm; Inhibition (Pseudomonas aeruginosa [40]): 0 mm
7 | N=C1C(Cl)=C(O)OC1O (stereo unspecified) | 64 (≈ 428 µM) | 32 (≈ 214 µM) | 16 | 16 (≈ 107 µM) | 8 (≈ 53.5 µM) | 8 | 16 (≈ 107 µM) | 64 (≈ 428 µM) | 128 (≈ 856 µM) | 16 (≈ 107 µM) | 32 (≈ 214 µM) | 64 (≈ 428 µM) | 64 (≈ 428 µM) | 64 (≈ 428 µM) | 64 (≈ 428 µM) | 32 (≈ 214 µM) | 64 (≈ 428 µM) | 64 (≈ 428 µM) | 128 (≈ 856 µM) | 8 | MIC (Klebsiella pneumoniae [23]): 32 µg/mL (≈ 214 µM); MIC (Pseudomonas aeruginosa [25]): 32 µg/mL (≈ 214 µM); MBC (Klebsiella pneumoniae [26]): 64 µg/mL (≈ 428 µM); MBC [27]: 64 µg/mL (≈ 428 µM); MBC (Staphylococcus aureus [28]): 16 µg/mL (≈ 107 µM); MIC (Escherichia coli [29]): 64 µg/mL (≈ 428 µM); MBC (Acinetobacter sp. [30]): 32 µg/mL (≈ 214 µM); MBC (Escherichia coli [31]): 128 µg/mL (≈ 856 µM); MIC (Staphylococcus aureus [32]): 4 µg/mL (≈ 26.7 µM); MBC (Escherichia coli [33]): 128 µg/mL (≈ 856 µM); MBC [34]: 64 µg/mL (≈ 428 µM); MBC (Pseudomonas aeruginosa [35]): 128 µg/mL (≈ 856 µM); MBC (Staphylococcus aureus [36]): 32 µg/mL (≈ 214 µM)
